Reference: ChEMBL document CHEMBL1150846, “Thorectandrols A and B, new cytotoxic sesterterpenes from the marine sponge Thorectandra species” (J Nat Prod, 2001)
≈ marks a conversion by molar mass, not a printed value.

How the values were obtained:
Malme-3M = test: Cytotoxicity against human MALME-3M cells after 2 days by XTT assay; assay type: functional, cell-based; conditions: 48 h
MCF7 = test: Cytotoxicity against human MCF7 cells after 2 days by XTT assay; assay type: functional, cell-based; conditions: MCF7, 48 h

**Q.** `C=C1CCC[C@@H]2[C@@](C)(CC/C(C)=C/C[C@@H](O)C3=CC(=O)OC3O)[C@@H](C)CC[C@@]12C` (some centres not stated) [PALAUOLOL] was tested. Which IC50 (Malme-3M) did it give?
**A.** The IC50 was 0.46 µg/mL (≈ 1.14 µM).

**Q.** And the IC50 (MCF7)?
**A.** Its IC50 is 14.2 µg/mL (≈ 35.3 µM).
